Data published in patent US10149860B2, “Compositions and methods for treating alzheimer's disease and other tauopathies” (Board of Trustees Of The Leland Stanford Junior University, priority 2013, dated 2018).

Assays:
FAF = molecular target: T1, FAF (Drosophila melanogaster, UniProt P55824); experiment: Drosophila larval NMJ bouton number after feeding WP1130 in fly food; assay type: in vivo
T1 construct: Mhc-Gal4>PAR-1 and control Mhc-Gal4/+ animals were fed with fly food containing WP1130 or DMSO alone; endogenous in cells; host or cells: Drosophila third instar larvae (body-wall muscle / NMJ)
Method: For immunohistochemistry, third instar lavae were selected, dissected in PBS, fixed in 4% formaldehyde (Ted Pella) in PBS for about 15 minutes and washed 3× in 0.1% Triton X-100 in PBS. The primary antibodies used were: anti-PAR-1 (1:10,000), anti-phospho-PAR-1 (1:1,000); anti-Slimb (1:1,000); anti-Dlg (4F3) (1:50, Hybridoma bank, University of Iowa); anti-GFP (1:8,000, Abcam); anti-dtau (1:3). Primary antibody incubation was performed at 4° C. overnight. All secondary antibodies (Molecular Probes) and Texas Red or FITC-conjugated anti-HRP (Jackson ImmunoResearch Laboratories) were used at 1:200 and incubated for about 2 hours at room temperature. Laval preparations were mounted in SlowFade Antifade kit (Invitrogen). Confocal images were collected from Leica confocal microscopes SP2 and SP5 equipped with 40× or 100× inverted NX oil lens. Leica Application Suite Advanced Fluorescence software was used to capture, process and analyze images. Analysis of the NMJ was performed essentially as described^51. All crosses for genetic interaction studies in the NMJ were performed at 25° C.
(§1) Either WP1130 (Selleck Chemicals) or DMSO (Sigma) was added to fly food at 2, 5 or 10 μM concentrations. Feeding third instar larvae were collected from the drug-containing food and dissected in PBS. Besides Mhc-GAL4>UAS-APP, which were raised at 29° C., all flies were raised at 25° C.
Fly eye sizes were measured on multiple samples (n>15) from both control and experimental genotypes using the NIH ImageJ software. Average eye size was presented as a normalized percentage of control eye size. We performed two-tailed unpaired Student's t-test to analyze the significance of differences between two groups. Quantification of NMJ bouton number was performed according to previously described protocols (Lee et al., 2010). NMJ bouton number is normalized by muscle area at muscle 6/7 in abdominal segment A3. The experimental genotypes were normalized relative to the control genotype.
To investigate whether WP1130 may act as an inhibitor of FAF to control PAR-1 activity in vivo, Mhc-Gal4>PAR-1 and control Mhc-Gal4/+ animals were fed with fly food containing WP1130 or DMSO alone. […] Given the potent effect of WP1130 in modulating PAR-1 protein level, whether WP1130 would affect the phosphorylation of tau was tested.
(a) Quantification of the pharmacological effect of WP1130 on the total number of boutons on muscle 6/7 of A3, after normalization with bouton area. Indicated genotype flies were incubated with 0, 2, 5 or 10 μM concentrations of WP1130. (b) Western blot analyses showing the effects of WP1130 (10 μM) on PAR-1-Myc levels in third instar larvae body-wall muscle extracts. Values represent normalized PAR-1-Myc levels. Actin serves as loading control. (c) Quantification of NMJ bouton number showing rescue by WP1130 (10 μM) of the bouton-loss phenotypes induced by Mhc-Gal4>UAS-htauM or Mhc-Gal4>UAS-htauM+UAS-PAR-1. (d) Western blot analysis showing reduced 12E8-positive htauM level by WP1130 (10 μM). Values represent normalized 12E8-positive htauM levels. Actin serves as loading control. (e) Quantification of NMJ bouton number showing rescue by WP1130 (10 μM) of the bouton-loss phenotypes induced the expression APP/Aβ-42. (f) A model depicting possible signaling pathways linking APP/Aβ-42 to synaptic dysfunction and synapse loss seen in AD. Dashed lines indicate potential direct regulations.

PAR-1 = experiment: Western blot of PAR-1-Myc levels in third instar larvae body-wall muscle extracts; assay type: in vivo, Drosophila; settings: Mhc-Gal4>PAR-1 larvae; WP1130 10 μM vs DMSO; FIG. 26b
Method: (§2) For Western blot analysis, the primary antibodies used were: anti-PAR-1 (1:8,000), anti-phospho-PAR-1 (1:1,000); anti-HA (1:2,000, Sigma); anti-Myc (1:1,000, Millipore); anti-GFP (1:2,000, Abcam); anti-Dlg (4F3) (1:1,000, Hybridoma bank, University of Iowa); 12E8 (1:8,000); anti-Actin (1:40,000, Sigma); anti-Gapdh (1:3,000, Abcam).
as §1
(§3) To investigate whether WP1130 may act as an inhibitor of FAF to control PAR-1 activity in vivo, Mhc-Gal4>PAR-1 and control Mhc-Gal4/+ animals were fed with fly food containing WP1130 or DMSO alone. […]
(§4) (a) Quantification of the pharmacological effect of WP1130 on the total number of boutons on muscle 6/7 of A3, after normalization with bouton area. […] (c) Quantification of NMJ bouton number showing rescue by WP1130 (10 μM) of the bouton-loss phenotypes induced by Mhc-Gal4>UAS-htauM or Mhc-Gal4>UAS-htauM+UAS-PAR-1. […] (e) Quantification of NMJ bouton number showing rescue by WP1130 (10 μM) of the bouton-loss phenotypes induced the expression APP/Aβ-42. […]

[1] = test system: htau phosphorylation at 12E8 sites; experiment: Western blot of 12E8-positive htauM level in WP1130-fed flies; assay type: in vivo, Drosophila; settings: WP1130 10 μM vs DMSO; FIG. 26d
Method: as §2, §1, §3, §4

MARK4 [2] = experiment: Western blot of MARK4 stability in HEK 293T cells transfected with hMARK4-HA; assay type: cell-based, human; settings: HEK 293T cells with hMARK4-HA; 5 μM WP1130 for 8 h; FIG. 25a
Method: (§5) HEK 293T cells transfected with the hMARK4-HA plasmids were treated with 5 μM WP1130 for 8 h and subsequently used for western blot analysis. Actin serves as loading control. […] Cultured HEK 293T cells were treated with 0, 2, 5 and 10 μM WP1130 for 12 h, and used for western blot analysis. Actin serves as loading control.

[3] = test system: endogenous tau phosphorylation at the MARK sites; experiment: Western blot of endogenous tau phosphorylation (12E8 antibody) in HEK 293T cells; assay type: cell-based, human; settings: 0, 2, 5 and 10 μM WP1130 for 12 h, FIG. 25b
Method: as §5

MARK4 [4] = experiment: Western blot of MARK4 in brain extracts of PS19 tauopathy mice after ICV infusion; assay type: in vivo; settings: relative to vehicle controls, FIG. 27
Method: (§6) To test the effects of WP1130 in a mammalian model of AD, the drug was administered to Tauopathy mice (PS19) expressing the pathogenic P301S human tau transgene. Mice received intracerebroventricular (ICV) infusion of either WP1130 or vehicle controls and MARK4 and p-Tau levels were assessed by western blot. […] Tauopathy mice (PS19) expressing the pathogenic P301S human tau transgene were treated with vehicle (#1, 2, 4, 6, 12) or WP1130 (#5, 8, 13, 14, 15) by intracerebroventricular (ICV) infusion, and brain extracts were subjected to Western blot analysis with the indicated antibodies. Actin serves as a loading control, and T14 anti-Tau antibody measures levels of total tau. Note the reduction of MARK4 and p-Tau (S262) protein levels by drug treatment.

[5] = test system: tau phosphorylation at the PAR-1/MARK target site (S262); experiment: Western blot of p-Tau (S262) in brain extracts of PS19 tauopathy mice after ICV infusion; assay type: in vivo; settings: relative to vehicle controls, FIG. 27
Method: as §6

PS19 mice = experiment: Passive avoidance test in PS19 tauopathy mice; assay type: in vivo; settings: WP1130-treated PS19 mice vs wt and vehicle treated PS19 mice; FIG. 28
Method: The passive avoidance test was used to test whether WP1130 could rescue the learning and memory deficits expressed in the PS19 mice. During training, the animals were subjected to electric shock on the foot in the dark chamber. During testing, the trained animals were placed in the light chamber and the time it took the animals to enter the dark chamber (latency time) was recorded. […] (Top) A diagram showing the passive-avoidance test, in which animals were allow to freely moving between the light and dark chambers during habituation. During training, the animals were subjected to electric shock on the foot in the dark chamber. During testing, the trained animals were placed in the light chamber and the time it took the animals to enter the dark chamber (latency time) was recorded. (Bottom) Statistical analysis of the latency times of vehicle-treated WT control, vehicle-treated PS19 tauopathy mice, and drug-treated PS19 tauopathy during the habituation, training, and testing periods. ** indicates P<0.01 in Student's t-test.

T1 sequence (P55824 whole entry, the tested form may be a part): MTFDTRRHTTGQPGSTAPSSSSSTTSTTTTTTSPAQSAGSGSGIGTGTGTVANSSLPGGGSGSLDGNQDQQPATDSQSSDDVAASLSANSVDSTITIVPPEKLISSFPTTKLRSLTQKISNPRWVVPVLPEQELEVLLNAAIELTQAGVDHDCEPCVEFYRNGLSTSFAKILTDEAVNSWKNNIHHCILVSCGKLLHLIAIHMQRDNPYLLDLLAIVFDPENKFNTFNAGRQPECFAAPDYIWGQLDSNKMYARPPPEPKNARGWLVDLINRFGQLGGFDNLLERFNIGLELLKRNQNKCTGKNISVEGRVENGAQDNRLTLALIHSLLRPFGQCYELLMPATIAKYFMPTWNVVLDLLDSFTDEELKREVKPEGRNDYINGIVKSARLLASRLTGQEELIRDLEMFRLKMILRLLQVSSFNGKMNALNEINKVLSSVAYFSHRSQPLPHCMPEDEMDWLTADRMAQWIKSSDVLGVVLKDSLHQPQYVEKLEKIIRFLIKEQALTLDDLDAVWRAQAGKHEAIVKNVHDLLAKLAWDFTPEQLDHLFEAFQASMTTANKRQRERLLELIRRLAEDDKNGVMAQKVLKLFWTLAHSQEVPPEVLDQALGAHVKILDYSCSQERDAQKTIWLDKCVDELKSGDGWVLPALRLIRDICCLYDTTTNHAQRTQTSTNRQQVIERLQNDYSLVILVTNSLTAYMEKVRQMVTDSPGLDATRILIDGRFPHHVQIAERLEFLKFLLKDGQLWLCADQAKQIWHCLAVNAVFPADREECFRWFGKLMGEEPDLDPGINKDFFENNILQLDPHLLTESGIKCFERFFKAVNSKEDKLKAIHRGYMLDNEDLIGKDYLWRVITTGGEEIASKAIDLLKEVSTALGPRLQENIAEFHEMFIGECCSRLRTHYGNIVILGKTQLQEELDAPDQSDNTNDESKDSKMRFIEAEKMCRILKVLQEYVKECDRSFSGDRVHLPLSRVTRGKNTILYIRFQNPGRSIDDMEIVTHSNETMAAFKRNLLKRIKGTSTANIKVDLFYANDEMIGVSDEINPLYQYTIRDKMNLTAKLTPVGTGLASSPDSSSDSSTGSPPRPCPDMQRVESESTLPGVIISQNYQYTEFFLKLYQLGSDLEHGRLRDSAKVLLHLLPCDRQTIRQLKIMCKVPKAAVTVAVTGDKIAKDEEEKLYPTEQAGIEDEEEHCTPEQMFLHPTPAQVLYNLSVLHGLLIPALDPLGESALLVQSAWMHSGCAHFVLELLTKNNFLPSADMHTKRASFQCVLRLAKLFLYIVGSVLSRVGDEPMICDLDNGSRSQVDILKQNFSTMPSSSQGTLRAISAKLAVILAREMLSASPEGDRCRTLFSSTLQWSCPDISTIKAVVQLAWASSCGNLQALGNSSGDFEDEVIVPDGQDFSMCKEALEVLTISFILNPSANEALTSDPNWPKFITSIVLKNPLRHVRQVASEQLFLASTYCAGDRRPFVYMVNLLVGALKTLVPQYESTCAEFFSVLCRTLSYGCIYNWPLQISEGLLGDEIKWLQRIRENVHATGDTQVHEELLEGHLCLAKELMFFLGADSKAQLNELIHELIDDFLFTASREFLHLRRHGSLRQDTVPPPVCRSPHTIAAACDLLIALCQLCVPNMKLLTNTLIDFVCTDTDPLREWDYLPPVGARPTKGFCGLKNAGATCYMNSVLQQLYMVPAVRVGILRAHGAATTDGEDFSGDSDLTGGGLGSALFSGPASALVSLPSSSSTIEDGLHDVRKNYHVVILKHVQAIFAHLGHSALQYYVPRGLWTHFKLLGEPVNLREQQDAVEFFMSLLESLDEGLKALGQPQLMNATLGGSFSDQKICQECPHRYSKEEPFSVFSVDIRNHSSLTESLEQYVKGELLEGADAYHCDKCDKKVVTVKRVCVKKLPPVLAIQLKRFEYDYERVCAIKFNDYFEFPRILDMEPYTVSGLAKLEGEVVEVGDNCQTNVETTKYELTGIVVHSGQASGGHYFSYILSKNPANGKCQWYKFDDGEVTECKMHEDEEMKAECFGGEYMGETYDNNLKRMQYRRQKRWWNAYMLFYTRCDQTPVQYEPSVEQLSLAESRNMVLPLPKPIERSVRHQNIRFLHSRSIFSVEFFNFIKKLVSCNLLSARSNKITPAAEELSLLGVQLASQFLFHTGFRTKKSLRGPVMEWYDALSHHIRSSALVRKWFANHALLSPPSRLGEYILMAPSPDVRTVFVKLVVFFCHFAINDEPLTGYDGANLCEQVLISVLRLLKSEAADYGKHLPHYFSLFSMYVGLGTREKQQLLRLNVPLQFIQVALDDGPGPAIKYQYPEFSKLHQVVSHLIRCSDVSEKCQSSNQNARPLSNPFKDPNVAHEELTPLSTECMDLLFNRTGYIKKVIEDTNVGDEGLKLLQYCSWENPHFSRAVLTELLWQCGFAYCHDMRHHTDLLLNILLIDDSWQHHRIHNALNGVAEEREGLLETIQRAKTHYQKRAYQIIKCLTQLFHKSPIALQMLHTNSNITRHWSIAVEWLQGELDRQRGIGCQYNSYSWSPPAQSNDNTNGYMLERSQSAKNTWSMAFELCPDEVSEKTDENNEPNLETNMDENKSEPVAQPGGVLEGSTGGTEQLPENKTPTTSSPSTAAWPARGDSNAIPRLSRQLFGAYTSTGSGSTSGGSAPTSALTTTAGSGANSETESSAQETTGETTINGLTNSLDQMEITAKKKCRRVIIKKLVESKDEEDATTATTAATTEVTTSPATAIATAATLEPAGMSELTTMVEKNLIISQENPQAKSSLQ

Q: Which “loss of NMJ bouton number caused by overexpression of PAR-1” value (FAF; Mhc-Gal4>PAR-1 larvae, WP1130 in fly food at 0, 2, 5 or 10 μM vs DMSO, FIG. 26a) does the source give for `CCC[C@H](NC(=O)/C(C#N)=C/c1cccc(Br)n1)c1ccccc1` [WP1130, (S,E)-3-(6-bromopyridin-2-yl)-2-cyano-N-(1-phenylbutyl)acrylamide] here?
A: Its value is “highly effective in preventing the loss of NMJ bouton number”.

Q: What about the “bouton-loss phenotype caused by the co-expression of PAR-1 and htauM” value (FAF; Mhc-Gal4>UAS-htauM+UAS-PAR-1, WP1130 10 μM vs DMSO, FIG. 26c) of the same compound?
A: The value was “partially suppressed”.

Q: And the “bouton-loss phenotype caused by the postsynaptic toxicity of APP/Aβ-42” value (FAF; WP1130 10 μM, FIG. 26e)?
A: The value was “effectively suppressed”.

Q: What about the “synaptic-loss phenotype caused by postsynaptic co-expression of FAF and Slimb-ΔF” value (FAF; WP1130 in fly food vs DMSO, FIG. 26a) of the same compound?
A: The value was “blocked synaptic-loss phenotype”.

Q: What about the “bouton-loss phenotype induced by Mhc-Gal4>UAS-htauM” value (FAF; htauM alone, WP1130 10 μM, FIG. 26c) of the same compound?
A: Its value is “rescue”.

Q: And the PAR-1 protein level (PAR-1)?
A: Its PAR-1 protein level is “reducing PAR-1 protein level”.

Q: And the “htau phosphorylation at 12E8 sites” value [1]?
A: The value was “dramatically decreased”.

Q: What about the “stability of MARK4” value (MARK4 [2]) of the same compound?
A: The value was “decreases the stability of MARK4”.

Q: And the “endogenous tau phosphorylation at the MARK sites (12E8 antibody)” value [3]?
A: Its value is “decreased endogenous tau phosphorylation”.

Q: What about the MARK4 level (MARK4 [4]) of the same compound?
A: The MARK4 level was “significantly reduced”.

Q: What about the phosphorylated tau level [5] of the same compound?
A: The phosphorylated tau level was “significantly reduced”.

Q: And the “latency time to enter the dark chamber” value (PS19 mice)?
A: Its value is “latency times comparable to that of wt”.
